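Cells were grown in 96-well plates and exposed to each compound for 48 hours at five concentrations; endpoints were interpolated linearly between bracketing concentrations, or set to the highest concentration if not reached. GI50 = concentration required for 50% inhibition of growth.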 Activity calls are given as the source filed them. Rule as the data show it: active = GI50 up to about 1.1 µM and inactive = higher.
Assays:
Assay in all cases: NCI anticancer screen, dose series, 48 h
[1] = tested on: SK-MEL-5
[2] = tested on: MCF7
[3] = tested on: NCI-H226
[4] = tested on: SF-295
[5] = tested on: UACC-62
[6] = tested on: NCI-H460
[7] = tested on: MOLT-4
[8] = tested on: Malme-3M
[9] = tested on: SF-268
[10] = tested on: HL-60
[11] = tested on: ACHN
[12] = tested on: SR
[13] = tested on: SN12C
[14] = tested on: HOP-92
[15] = tested on: U-251
[16] = tested on: TK-10
[17] = tested on: UO-31
[18] = tested on: SK-MEL-28
[19] = tested on: PC-3

Measured: GI50

CN(C)c1ccc(/C=C2\C[N+](C)(C)C/C(=C\c3ccc(N(C)C)cc3)C2=O)cc1
inactive: [1] 11.6 µM | [2] 5.4 µM | [3] 30.5 µM | [4] 31.6 µM | [5] 13.6 µM | [6] 13.6 µM | [7] 13.6 µM | [8] 22.1 µM | [9] 19.2 µM | [10] 2.47 µM | [11] 70.5 µM | [12] 8.09 µM | [13] 20.5 µM | [14] 19.4 µM | [15] 6.27 µM | [16] 78.7 µM | [17] > 100 µM | [18] 15.3 µM

OCCN(CCO)c1cccc(N(CCO)CCO)n1
inactive: [1] > 100 µM | [4] > 100 µM | [5] 58.2 µM | [6] > 100 µM | [7] > 100 µM | [9] > 100 µM | [10] > 100 µM | [11] > 100 µM | [12] > 100 µM | [13] > 10 µM | [14] > 100 µM | [15] > 100 µM | [16] > 100 µM | [17] > 100 µM | [18] > 100 µM

Oc1c2cc(Cl)cc1COCc1cc(Cl)cc(c1O)COCc1cc(Cl)cc(c1O)COC2
inactive: [1] > 100 µM | [2] 74.3 µM | [3] 30.5 µM | [4] > 100 µM | [5] 56.5 µM | [6] 22.9 µM | [10] 2.88 µM | [19] > 100 µM | [11] > 100 µM | [12] > 100 µM | [14] 6.9 µM | [15] 29.4 µM | [16] 46.8 µM | [17] 32.6 µM | [18] > 100 µM

CCOC(=O)c1cc2c(cn1)[nH]c1cccc(N)c12
inactive: [1] > 100 µM | [4] > 100 µM | [5] > 100 µM | [6] > 100 µM | [7] 61.5 µM | [8] > 100 µM | [9] > 100 µM | [10] 14.6 µM | [11] > 100 µM | [12] > 100 µM | [13] > 100 µM | [14] > 100 µM | [15] > 100 µM | [16] > 100 µM | [17] > 100 µM | [18] > 100 µM

Cc1ccc(NC(=O)CCC(=O)C2CC(=O)CC/C2=N\NC(=O)c2cc3ccccc3cc2O)cc1C (configuration not stated)
inactive: [1] 14.5 µM | [3] 23 µM | [4] 32.1 µM | [5] 10.2 µM | [6] 25.2 µM | [7] 17.7 µM | [8] 30.4 µM | [9] 17.3 µM | [10] 4.35 µM | [11] 18.9 µM | [12] 22.1 µM | [13] 48.9 µM | [14] 14.3 µM | [15] 40.1 µM | [16] 51.9 µM | [17] 4.13 µM | [18] 65 µM

CCCCN(CCCC)CC(C(=O)Nc1ccccc1)/C(C)=N\NC(=O)c1ccncc1 (configuration not stated)
inactive: [1] > 100 µM | [3] > 100 µM | [4] > 100 µM | [5] 59.3 µM | [6] 46 µM | [7] > 100 µM | [8] > 100 µM | [9] > 100 µM | [10] 98.2 µM | [11] > 100 µM | [12] > 100 µM | [13] > 100 µM | [14] > 100 µM | [15] > 100 µM | [16] > 100 µM | [17] 28.5 µM | [18] > 100 µM

[N-]=[N+]=Nc1c(Cc2ccccc2)c(=O)oc2ccccc12
inactive: [1] 2.67 µM | [2] 32.6 µM | [4] 33.4 µM | [5] > 10 µM | [6] 18.1 µM | [7] 5.06 µM | [8] 38.3 µM | [9] 25.9 µM | [10] 90.8 µM | [19] 22.9 µM | [11] 38.2 µM | [12] 33.4 µM | [13] > 10 µM | [15] 24.4 µM | [16] 28.2 µM | [17] 36.1 µM | [18] > 10 µM

O=C(O)C12C=CC(C1)c1ccccc12 (configuration not stated)
inactive: [1] > 100 µM | [3] > 100 µM | [4] > 100 µM | [5] > 100 µM | [6] > 100 µM | [7] > 100 µM | [8] > 100 µM | [9] > 100 µM | [10] > 100 µM | [11] > 100 µM | [12] > 100 µM | [13] > 100 µM | [14] > 100 µM | [15] > 100 µM | [16] > 100 µM | [17] > 100 µM | [18] > 100 µM

CC(C)(C)C(=O)Cc1cc2c(cc1C(=O)O)S(=O)(=O)NC(C(C)(C)C)=C2
inactive: [3] > 100 µM | [4] > 100 µM | [5] > 100 µM | [6] > 100 µM | [7] > 100 µM | [8] > 100 µM | [9] > 100 µM | [10] > 100 µM | [11] > 100 µM | [12] > 100 µM | [13] > 100 µM | [14] > 100 µM | [15] > 100 µM | [16] > 100 µM | [17] > 100 µM | [18] > 100 µM

NS(=O)(=O)c1cc2c(cc1Cl)NC(C(=O)c1cc(=O)c3ccc(O)cc3o1)=NS2(=O)=O
inactive: [1] > 100 µM | [3] > 100 µM | [4] > 100 µM | [5] > 100 µM | [6] > 100 µM | [7] > 100 µM | [8] > 100 µM | [9] > 100 µM | [10] > 100 µM | [11] > 100 µM | [12] > 100 µM | [13] > 100 µM | [14] > 100 µM | [15] > 100 µM | [16] > 100 µM | [17] > 100 µM | [18] > 100 µM

CC1(C)N=C(Oc2ccccc2)n2nccc2N1
inactive: [1] > 100 µM | [3] > 100 µM | [4] > 100 µM | [5] 63.4 µM | [6] 75 µM | [7] > 100 µM | [8] > 100 µM | [9] > 100 µM | [10] > 100 µM | [11] > 100 µM | [12] 61.4 µM | [13] > 100 µM | [14] > 100 µM | [15] > 100 µM | [16] > 100 µM | [17] > 100 µM | [18] > 100 µM

CN(C)C1(N(C)C)Oc2c(c(=O)n(C)c(=O)n2C)C(c2ccccc2)C1(F)F (configuration not stated)
inactive: [1] > 100 µM | [2] > 100 µM | [3] > 100 µM | [4] > 100 µM | [5] > 100 µM | [6] > 100 µM | [7] > 100 µM | [9] > 100 µM | [19] > 100 µM | [11] > 100 µM | [14] > 100 µM | [15] > 100 µM | [16] > 100 µM | [17] > 100 µM | [18] > 100 µM

Reference: ChEMBL document CHEMBL1201862, “PubChem BioAssay data set” (2004)
